pIC50: −log10 of the molar value. Like-named read-outs stand apart in the source and are kept apart here.
Columns and labels:
[1] = tested on: AKT phosphorylation (Thr308) in AN3-CA cells; test: AKT (T308) Phosphorylation Assay (Meso Scale Discovery); type: cell-based; details: Homo sapiens, 24 hours, FIG. 7A, read-out: IC50 knock down of phospho-AKT (Thr308) levels
Description: AN3-CA cells were plated in 900 μl of RPMI-1640 media supplemented with 10% FBS and 1% Pen/Strep at a density of 8×10^5 cells per well in 6-well plates. Cells were allowed to attach by incubation overnight at 37° C. and 5% CO2. Test compounds were diluted to 10× concentrations in RPMI-1640 media (containing 3% DMSO) and 100 μl of these dilutions were added to the appropriate wells containing the cells. The plates containing the drug-treated cells and appropriate controls were incubated for 24 hours. At the end of incubation, phosphorylated AKT was evaluated in treated and control samples using a Meso Scale Discovery (Gaithersburg, Md.) assay kit (human Phospho-Akt (Thr308) kit) and by following the manufacturer's instructions included with the kit. Total AKT (phosphorylated and unphosphorylated) was also evaluated in the samples using a separate kit (Meso Scale Discovery). The percentage of AKT phosphorylated at the Thr308 position (also indicated as T308 herein) was determined by normalizing the phospho-AKT signal to the total AKT signal and then showing the percent phosphorylation in the treated samples relative to the controls.
Briefly, AN3-CA cells were treated with the compound for 24 hours and lysates from these treatments were analyzed for phospho-AKT (Thr308) using the Meso Scale Discovery technology platform as described above.

HT-29 = test: Cell viability assay, cancer cell line panel; type: cell-based; details: Homo sapiens, mutation PIK3CA, BRAF
[2] = Pharmacokinetics in mice (iv and po); type: in vivo; details: for Vd: read-out: Vss
Description: Pharmacokinetic parameters were determined by dosing mice by oral (“po”) and intravenous (“iv”) administration of two representative disclosed compounds.
The vehicle was 1% DMSO, 10% ethanol, 35% PEG 400, and the balance H2O. Blood was collected (about 50 μl per individual animal) into heparin-containing collection tubes, and cells were removed by centrifugation. The concentration of compound was determined at the indicated time points for each sample using mass spectrometry. […] PK parameters were calculated using WinNonLin (Pharsight Products, Saint Louis, Mo.). […] The level detected at 0.08 hr was 9 ng/ml±5.0 ng/ml.
Vehicle, sample collection and analysis is as described above.

HCT-15 = test: Cell viability assay, cancer cell line panel; type: cell-based; details: Homo sapiens, mutation KRAS, PIK3CA
[3] = Mouse xenograft study, body weight; type: in vivo, athymic nude mice; details: 50 mg/kg IP, daily Monday through Friday for two weeks
Description: The in vivo effects of compounds were determined in a mouse subcutaneous xenograft tumor model wherein AN3-CA cells were implanted subcutaneously into the hind flank of athymic nude mice. Briefly, seven-week-old mice were injected with 2×10^6 AN3-CA cells on the right hind flank. […] The vehicle for these studies was 20% DMSO, 20% cremophor, and 60% water. The test compound was administered on daily schedule (Monday through Friday) for two weeks at a concentration of 50 mg/kg by intraperitoneal (“IP”) injection. The mice were sacrificed and the tumors were excised for western blot analysis. Tumor volume was determined using the formula L×W2×0.5, where L is the longest length, and W is the shortest length. Tumor volume and body weight was measured twice a week.
The study was carried out as described above for 2,2-difluoro-N-(3-(5-morpholino-1H-benzo[d]imidazol-2-yl)-1H-indazol-5-yl)cyclopropanecarboxamide, except that the test compound used was 2,2-difluoro-N-(3-(5-(2-methylmorpholino)-1H-benzo[d]imidazol-2-yl)-1H-indazol-5-yl)cyclopropanecarboxamide. Data are shown in FIGS. 10A and 10B for the effect of the compound on tumor volume and body weight, respectively.

AN3-CA cells = test: Cell viability assay (ATP-lite); type: cell-based
Description: AN3-CA (PTEN-deficient), RL95-2 (PTEN-deficient), and HEC-1A (PTEN-wild type) cells were plated in 45 μl of RPMI-1640 media supplemented with 10% FBS and 1% Pen/Strep at a density of 1000 cells per well in white 384-well plates. Cells were allowed to attach by incubation overnight at 37° C. and 5% CO2. Test compounds were diluted to 10× concentrations in RPMI-1640 media (containing 3% DMSO) and 5 μl 1 of these dilutions were added in triplicate to the appropriate wells containing the cells. The plates containing the drug-treated cells and appropriate controls were incubated for 96 hours. At the end of the incubation, 40 μl of ATP-lite (PerkinElmer, Inc., Waltham, Massachussetts) reagent were added to each well and luminescence signal was measured on an EnVision microplate reader.
Alternatively, AN3-CA, RL95-2, HEC-1A endometrial cancer cell lines were plated at a density of 2000 cells per well in a 96 well culture plate in 45 μl of cell culture media and incubated overnight. The following day, test compounds were added to the cells in 5 μl of serum-free media to generate final concentrations of 10, 3, 1, 0.3, 0.1, 0.03, 0.01, or 0.003 μM. Vehicle treated controls were also included and each condition was applied in quadruplicate. Following 96 hours of incubation, 35 μL of ATP-lite (PerkinElmer) reagent was added each well and allowed to react for 10 minutes. Plate was read on a Envision 2104 MultiLabel reader (PerkinElmer).
(§1) IC50 values are determined using GraphPad Prism 5 software. The data were entered as an X-Y plot into the software as percent inhibition for each concentration of the drug. The concentration values of the drug were log transformed and the nonlinear regression was carried out using the “sigmoidal dose-response (variable slope)” option within the GraphPad software to model the data and calculate IC50 values.

PDK1 = PDK1 (Homo sapiens (Human), UniProt O15530); test: PDK1 ATP Depletion Kinase Assay (Kinase-Glo luminescence); type: biochemical; details: PDKtide substrate, read-out: PDK1 Kinase assays (IC50, μM) Activity Assay
Description: Test compounds were diluted to desired concentrations in kinase reaction buffer and briefly incubated with human recombinant PDK1 kinase which is histidine-tagged (Invitrogen Corporation, Carlsbad, Calif.). The reaction was subsequently initiated by the addition of ATP and PDKtide substrate (Millipore Corporation, Billerica, Massachussetts). […] After an incubation of 60 minutes at room temperature, 10 μl of the Kinase-Glo reagent (Promega Corporation, Madison, Wis.) was added to each well and incubated for an additional 10 minutes. Luminescence was measured on an EnVision microplate reader (PerkinElmer). The amount of luminescence from each reaction is inversely correlated with PDK1 kinase activity. Percent inhibition and IC50 values can be calculated by comparing enzyme activity in drug-treated wells to the appropriate controls, e.g. vehicle control.
as §1

[4] = mouse, plasma, po (Table VIII, dose not given)
[5] = Homo sapiens, AN3-CA, AN3-CA (PTEN and PIK3R1 mutations), read-out: Cell Viability IC50 AN3-CA

Chain of PDK1 (O15530 whole entry): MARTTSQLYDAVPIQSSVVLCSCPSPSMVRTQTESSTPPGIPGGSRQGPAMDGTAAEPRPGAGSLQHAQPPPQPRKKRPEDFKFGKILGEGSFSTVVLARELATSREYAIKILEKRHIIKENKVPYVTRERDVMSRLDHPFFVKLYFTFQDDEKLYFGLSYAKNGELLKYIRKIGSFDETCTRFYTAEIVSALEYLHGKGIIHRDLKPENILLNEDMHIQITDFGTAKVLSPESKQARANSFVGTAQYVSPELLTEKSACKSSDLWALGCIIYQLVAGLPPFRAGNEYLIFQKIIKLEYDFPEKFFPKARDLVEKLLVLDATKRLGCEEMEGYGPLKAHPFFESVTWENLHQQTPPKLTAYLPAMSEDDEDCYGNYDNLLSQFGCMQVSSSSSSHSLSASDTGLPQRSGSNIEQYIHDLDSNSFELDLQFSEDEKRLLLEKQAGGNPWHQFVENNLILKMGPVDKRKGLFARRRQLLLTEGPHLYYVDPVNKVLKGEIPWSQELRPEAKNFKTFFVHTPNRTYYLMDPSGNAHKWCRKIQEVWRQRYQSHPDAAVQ

| AUC(0-t) ([2]; mouse, plasma, iv, 5.0 mg/kg) | Cmax ([2]; mouse, plasma, iv, 5.0 mg/kg) | Tmax ([2]; mouse, plasma, iv, 5.0 mg/kg) | clearance ([2]; mouse, plasma, iv, 5.0 mg/kg) | half-life ([2]; mouse, plasma, iv, 5.0 mg/kg) | Vd ([2]; mouse, plasma, iv, 5.0 mg/kg) | IC50 (PDK1) | Compound | Effect on body weight [3] | pIC50 (AN3-CA cells; [5]) | also measured |
| --- | --- | --- | --- | --- | --- | --- | --- | --- | --- | --- |
| 516 ng·h/mL | 1840 ng/mL | 4.8 min | 161 mL/min/kg | 24 min | 1.6 L/kg | 0.143 µM | O=C(Nc1ccc2[nH]nc(-c3nc4ccc(N5CCOCC5)cc4[nH]3)c2c1)C1CC1(F)F (stereo not drawn) [Compound 1, 2,2-difluoro-N-(3-(5-morpholino-1H-benzo[d]imidazol-2-yl)-1H-indazol-5-yl)cyclopropanecarboxamide] | did not appear to cause any body weight loss | 7.57 | pIC50 [1]: 7.29; pIC50 (HT-29): 4.97; Cmax [2, 4]: 9 ng/mL; Tmax [2, 4]: 15 min; concentration at 0.08 hr ([2]; mouse, plasma, po, at 0.08 hr, read-out: Level detected after oral administration): 9 ng/mL; Level after oral administration (in words) ([2]; po, after 0.08 hr): below the limit of detection; pIC50 (HCT-15): 5.16; Potency in cell viability assay, AN3-CA (in words) (AN3-CA cells; FIG. 6): most potent; pIC50 (AN3-CA cells; Homo sapiens, AN3-CA, Table VI panel, mutation PTEN, PIK3R1, read-out: IC50 cell viability, AN3-CA): 7.32; pIC50 (AN3-CA cells; Homo sapiens, AN3-CA, read-out: IC50 cell viability, AN3-CA cells): 7.57 |
| 1280 ng·h/mL | 4530 ng/mL | 4.8 min | 65 mL/min/kg | 24 min | 0.63 L/kg | 0.159 µM | CC1CN(c2ccc3nc(-c4n[nH]c5ccc(NC(=O)C6CC6(F)F)cc45)[nH]c3c2)CCO1 (stereo not drawn) [Compound 2, 2,2-difluoro-N-(3-(5-(2-methylmorpholino)-1H-benzo[d]imidazol-2-yl)-1H-indazol-5-yl)cyclopropanecarboxamide] | did not appear to cause any body weight loss | > 7.52 | AUC(0-t) ([2]; mouse, plasma, po, 30 mg/kg): 244 ng·h/mL; Cmax ([2]; mouse, plasma, po, 30 mg/kg): 53 ng/mL; Tmax ([2]; mouse, plasma, po, 30 mg/kg): 15 min; bioavailability ([2]; mouse, plasma, po, 30 mg/kg): 19%; pIC50 (AN3-CA cells; AN3-CA (PTEN and PIK3R1 mutations), listed as Test Compound 2, read-out: Cell Viability IC50 AN3-CA): 7.64 |

Source: patent US8569511B2, “Substituted 3-(1H-benzo[d]imidazol-2-yl)-1H-indazole analogs as inhibitors of the PDK1 kinase” (University of Utah Research Foundation, priority 2011, dated 2013)
